Measured values reported in patent publication US20250228821A1 (priority 2022, published 2025).

Key:
protein kinase C = settings: cited from earlier work
[1] = human, microsomes, 1 μM
[2] = single dose 32 mg ruboxistaurin, healthy subjects (FIG. 5); cited from earlier work
[3] = in vivo; cited from earlier work
[4] = test system: rats treated with dextroamphetamine; test: Ultrasonic vocalizations in rats induced by dextroamphetamine; type: in vivo, male Wistar rats; settings: rats, 10, 30, 100 mg/kg IP 60 minutes before D-amphetamine 2.5 mg/kg IP (FIG. 9)
Description: 98 male Wistar rats were acclimated to the testing facility and handled daily (10 min/day) for 7 days prior to initiating the experiment. […] Rats were placed in white Plexiglas boxes (50×50×50 cm) and videotaped for 10 minutes to acclimate them to the test apparatus. Ultrasonic vocalizations (USV) were recorded with a microphone mounted 45 cm above the open field box to establish baseline, non-treatment related USV responses (50-kHz calls) in each rat. The next day, rats were injected with saline (1 mL/kg body weight, IP) and immediately placed into open field-testing boxes. USVs were recorded for 10 min.

[5] = Blood/brain barrier penetration, pharmacokinetic study in rats; settings: rat, 1 mg/kg intravenously
Text: Blood samples were collected from 3 animals at 0.25, 1-, and 4-hours post-dose. Brain samples were collected from 9 other rats, 3 each at 0.25, 1-, and 4-hours post-dose. Brain samples were weighted and homogenized with phosphate buffered saline.

increase of compound levels at 15 minutes by CYP3A4 inhibitor troleandomycin [1] [fold] | Compound | potency of protein kinase C inhibition, ruboxistaurin vs. N-desmethyl ruboxistaurin (protein kinase C) | half-life (t½) [2] [h] | elimination half-life [3] | effect on ultrasonic appetitive vocalizations (50-kHz calls) [4] | Mean brain ([5]; 0.25 hr) [ng/g] | Mean plasma ([5]; 0.25 hr) [ng/mL] | Mean brain ([5]; 1 hr) [ng/g] | Mean plasma ([5]; 1 hr) [ng/mL] | Mean brain ([5]; 4 hr) [ng/g] | Mean plasma ([5]; 4 hr) [ng/mL]
23 | CN(C)C[C@@H]1CCn2cc(c3ccccc32)C2=C(C(=O)NC2=O)c2cn(c3ccccc23)CCO1 [Ruboxistaurin] | equipotent | 5.25 |  |  |  |  |  |  |  | 
 | [Li] [lithium] |  |  | about 18 hours |  |  |  |  |  |  | 
 | (12E,32E,7S)-7-((methylamino)methyl)-22,25-dihydro-11H,21H,31H-6-oxa-1,3(3,1)-diindola-2(3,4)-pyrrolacyclononaphane-22,25-dione hydrochloride [N-desmethyl ruboxistaurin] |  | 23.9 |  | able to reduce ultrasonic appetitive vocalizations | 21.0 | 73.3 | 19.5 | 43.5 | 13.3 | 11.8
